Assay results taken from article PMC11768549, “Optimization of Toxicity, Biodegradability, and Skin Irritation in Formulations Containing Mixtures of Anionic and Nonionic Surfactants Combined with Silica Nanoparticles” (Toxics, 2025).

Tests used:
Vibrio fischeri = assay: Luminescence inhibition assay in Vibrio fischeri (ISO 11348-2:2007, LumiStox 300); assay type: cell-based; conditions: 50% bioluminescence inhibition after 30 min exposure, pH 7.0, 2% NaCl; mixtures 1:1
Protocol: The toxicity measurement is based on the luminous intensity of marine bacteria of the strain V. fischeri NRRLB11177 after exposure to a toxic substance. Measurements were taken using the LumiStox 300 system, which includes a bioluminescence measuring instrument and an incubation unit, in accordance with the ISO 11348-2:2007 guideline. The luminescent bacteria, which were dehydrated and frozen at −18 °C, were reactivated with a suspension provided by Dr. Lange. The assay conditions were maintained at a pH of 7.0 with a NaCl concentration of 2%. Triplicate measurements were taken at incubation times of 30 min. The toxicity values were determined as EC50, representing the surfactant concentrations that inhibit 50% of the bioluminescence after 30 min of exposure. If necessary, the sample was filtered prior to the assay.
(§1) The toxicity of individual anionic and nonionic surfactants on V. fischeri and L. sativum was evaluated, and their EC50 results are presented in Table 2. For V. fischeri, toxicity values are expressed as EC50 values, determined using a logarithmic plot of sample concentration versus the percentage reduction in light intensity after a 30-min exposure period. This indicates the concentration at which there is a 50% reduction in bioluminescence. Similarly, for L. sativum, toxicity values are also expressed as EC50 values, which represent the concentration at which 50% growth inhibition is observed. This was measured by assessing the root and stem elongation after a 72-hour exposure period. The specific growth parameters, such as root length reduction, were used to determine the EC50 values.
(§2) The model of toxic units (MTU) was applied to quantify the interactions between toxicants in binary surfactant mixtures: FAE-R12–14E11 with EC-R12–14E3, FAE-R12–14E11 with EC-R12–14E10, and FAE-R12–14E11 with EC-R8E5. This approach helps predict whether the principles of concentration or response addition apply. The toxic unit for each component in the mixture (TUi) was calculated as the ratio between the concentration of the toxicant in the mixture [i] and its half-maximal effective concentration (EC50i) (Equation (7)). The total toxic unit of the mixture (TUmix) is the sum of the TUi values of the individual components […].(7) TUi=i/EC50i (8) TUmix=TUA+TUB=A/EC50A+B/EC50B
(§3) If the toxicants act independently (response addition), the predicted toxic unit (TUr) is calculated using Equations (9) and (10). If TUr ≈ TUmix, response addition can be expected.(9) If TUA>TUB TUr=1+TUB/TUA (10) If TUA<TUB TUr=1+TUA/TUB

Lepidium sativum = assay: Germination test on Lepidium sativum seeds (ISO 18763:2016), root and stem elongation; assay type: in vivo; conditions: 72 h, 25 °C, dark, mixtures 1:1; for EC50, L. sativum (Root): 50% root growth inhibition; for EC50, L. sativum (Stem): 50% stem growth inhibition
Protocol: The germination test on L. sativum (cress) seeds is a static test of acute toxicity. This test allows for evaluating the phytotoxic effects produced in the seed germination process and the development of seedlings during the first days of growth (72 h). The garden cress test with L. sativum was carried out according to ISO-18763:2016 [28]. The inhibition in the elongation of the root and stem was determined.
Briefly, 25 L. sativum seeds were placed in a well-distributed manner in Petri dishes (100 mm Ø) containing filter paper saturated with 5 mL of the test solution. Distilled water was used as a control, and zinc (II) was used as a toxic reference compound. Each Petri dish was covered and sealed to prevent moisture loss. For 72 h, at 25 °C, and in the absence of light, the different samples were incubated in triplicate. Once the incubation was completed, the length of the root and stem of each germinated seed was measured with the help of graph paper. The inhibition of the root and stem growth by the test solutions was assessed in comparison with the control.
as §1, §2, §3

[1] = Static biodegradation test (OECD 301E), DOC removal; conditions: initial 25 mg·L^−1; for B (surfactant biodegradability): percentage biodegraded after 50 h of assay; for t1/2 (half-life of biodegradation): time for 50% decrease of substrate, graphical
Protocol: The static biodegradation tests were conducted according to the OECD 301E guidelines, which focus on the removal of organic compounds measured as dissolved organic carbon (DOC). Solutions of the surfactant and surfactant–co-surfactant mixtures, serving as the sole carbon source for microorganisms, were tested in a mineral medium inoculated and incubated under aerobic conditions in the dark for 28 days. The initial concentration of the test substance for surfactant and surfactant–co-surfactant mixtures was set at 25 mg·L^−1.
The surfactant solution, for which biodegradability was to be determined, was inoculated with 0.5 mL of water from the secondary treatment stage of a sewage treatment plant (STP) operating with activated sludge (plus code: 597G+W2, Granada, Spain). The biodegradation process was monitored by measuring the residual surfactant concentration over time through DOC determinations in samples, filtered through a 0.45 µm Millipore membrane, using the total organic carbon (TOC) analyser Shimadzu VCSH/CSH (Shimadzu Co., Kyoto, Japan). Reference assays were performed with an easily biodegradable surfactant (linear alkylbenzene sulfonate) to determine the activity of the microbial population present in the test medium. […] All samples were tested in duplicate. The experimental setup included two flasks for the blank, two for the reference surfactant, two for the abiotic assay, and two for each of the surfactant concentrations tested.
The biodegradation of surfactants and their binary mixtures was assessed under aerobic conditions following the OECD 301E guidelines for ready biodegradability. The process was tracked by measuring the dissolved organic carbon (DOC) in the samples over time. […] Abiotic control tests, using HgCl2 to inhibit biological activity, confirmed that surfactant concentrations remained at nearly 100% throughout the degradation period. […] Figure 1 illustrates the progression of ultimate biodegradation of the surfactants and binary mixtures over the testing period. The assays were initiated with surfactant concentrations of 25 mg·L^−1.
To compare and quantify the biodegradation test, two key parameters of the biodegradation profiles were defined and analysed: (a) Half-life (t1/2) is the time required for the substrate concentration to decrease by 50% from the start of the biodegradation process. This value is determined using graphical methods based on the biodegradation curve. (b) Surfactant biodegradability (B) is defined as the percentage of surfactant that is biodegraded after 50 h of assay. Half-time and surfactant biodegradability results are shown in Table 5, together with mineralization values obtained using Equation (11).(11) Mineralization (%)=DOCi− [DOC]f/ [DOC]i·100 where
• DOCi is the dissolved organic carbon at the beginning of the test; • DOCf is the dissolved organic carbon at the end of the test.

zein = assay: Irritation potential using the modified zein method (zein number); parameters: species or system corn; conditions: room temperature; for ZN 0.5%: each component 0.5% wt.; for ZN 1%: each component 1% wt.
Protocol: The irritant potential of surfactants, their mixtures, and the addition of silica nanoparticles was assessed using a modified zein method. This method is used to assess the potential irritation of chemicals or cosmetics on the skin. It is based on the interaction of a substance with proteins, particularly with the protein zein, which is a protein derived from corn. The modified zein method is recognized as an in vitro alternative to predict dermal irritation without the need to perform tests on animals. This method involves three stages to determine the amount of protein (zein) solubilized in a surfactant-containing solution: (1) zein denaturation, (2) oxidation and mineralization of organic matter, and (3) nitrate content measurement. All experiments were conducted at room temperature and performed in triplicate. For these tests, the final concentration of each component, whether pure or in a mixture, was set at 0.5% and 1% wt. These concentrations reflect typical dosages found in cosmetic, detergent, and personal hygiene products that come into direct contact with the skin. The zein number (ZN), expressed as mg of nitrogen (N) released per 100 g of surfactant solution, was calculated using the following formula: ZN = c/10(2) where c is the nitrogen concentration measured spectrophotometrically in ppm (mg·1000 mL^−1). Given that the density of the testing solution is 1 g·mL^−1, c is ultimately expressed as mg·1000 g^−1. Two control cases were used for validation: a negative control with deionized water and a positive control with 1% wt. sodium lauryl sulphate (SLS), a well-known surfactant with high irritant potential. The zein number (ZN) (Section 2.3) provides an indication of surfactant-induced potential skin irritation. According to the scale established by, surfactants can be classified as non-irritant, moderately irritant, irritant, or strongly irritant. The final concentration of each component, whether individual or in a mixture, was set at 0.5% and 1% wt.

[2] = parameters: method as in doi:10.1016/j.molliq.2023.122021; conditions: cited from earlier work; for CMC (±SD): critical micelle concentration; for HLB: hydrophilic–lipophilic balance

Substance	EC50, V. fischeri (Vibrio fischeri)	EC50, L. sativum (Root) (Lepidium sativum)	EC50, L. sativum (Stem) (Lepidium sativum)	B (surfactant biodegradability) [1]	t1/2 (half-life of biodegradation) [1]	ZN 0.5% (zein)	ZN 1% (zein)	CMC (±SD) [2]	HLB [2]
Capryleth-6 Carboxylic Acid [EC-R8E5]	32.76 ± 3.60 µg/mL	53.61 ± 7.20 µg/mL	64.77 ± 6.50 µg/mL	9.40%	118.20 h	49.15 ± 3.60 mg of nitrogen (N) released per 100 g of surfactant solution	157.9 ± 7.40 mg of nitrogen (N) released per 100 g of surfactant solution	97.9 ± 6.5 [17] mg·L^−1	11–14 [17]
Laureth-4 Carboxylic Acid [EC-R12–14E3]	3.58 ± 1.28 µg/mL	35.40 ± 4.80 µg/mL	93.25 ± 8.90 µg/mL	1.25%	330.90 h	152.92 ± 7.25 mg of nitrogen (N) released per 100 g of surfactant solution	183.5 ± 5.60 mg of nitrogen (N) released per 100 g of surfactant solution	33.7 ± 3.1 [17] mg·L^−1	5.5 [17]
Laureth-11/Myreth-11 [FAE-R12–14E11]	13.26 ± 3.26 µg/mL	338.17 ± 13.21 µg/mL	97.15 ± 7.14 µg/mL	2.40%	185.80 h	–	–	18.5 ± 2.3 [17] mg·L^−1	14.3 [17]
Laureth-11 Carboxylic Acid [EC-R12–14E10]	14.18 ± 4.32 µg/mL	32.02 ± 8.90 µg/mL	60.11 ± 6.52 µg/mL	10.30%	130.50 h	–	–	70.8 ± 7.2 [17] mg·L^−1	9.5 [17]
